Experimental data published in patent US6469013B2, “Therapeutic compounds” (Parker Hughes Institute, priority 1998, dated 2002).

Tests used:
Format in all cases: cell-based
[1] = system: HaCaT human epidermal cells; test: UVB-induced PGE2 release (EIA); conditions: light or radiation study, UVB 25 mj/cm^2, 6 h, read-out: inhibition in UVB light induced prostaglandin release
Source text: HaCaT, which is a spontaneously transformed human epidermal cell line (16) was maintained in Dulbecco's modified Eagle's medium (DMEM) supplemented with 10% fetal bovine serum (Summit Biotech, Ft. Collins, Colo.).
A bank of 8-FSX24T12/HO/UVB lamps (National Biological Corporation, Twinsburg, Ohio) that emits light predominantly in the UVB range, 280-320 nm was used to irradiate mice and cell cultures. The irradiance of UVB lamps was always measured before irradiation using a UVB meter (model—500C obtained from National Biological Corporation, Twinsburg, Ohio). The dose of UVB light used to irradiate cultures was 25 mj/cm^2. Anesthetized mice received UVB radiations to a 2.0 cm^2 area on their dorsal surface. […]
Confluent HaCaT cells cultured in 24-well culture dishes were washed three times with serum-free DMEM containing 1% bovine serum albumin (BSA) (Cayman chemicals, Ann Arbor, Mich.) and incubated with 3-30 μM compound compound 6 for 1 hour at 37° C. After incubation the cells were washed twice with PBS, and either exposed to 25 mj/cm^2 UVB light or stimulated with 50 ng/ml rhEGF, and fed with serum-free DMEM containing 1% BSA. compound 6 was readministered and the cells were incubated for 6 h at 37° C. […] Cellular protein was determined using the Pierce's BCA protein assay method (Smith, P. K., et al., 1985, Anal Biochem. 150 (1):76-85).

[2] = system: SQ20B (Squamous Carcinoma); test: Methylcellulose clonogenic assay
Method: (§1) The antileukemic activity of compound 6 against clonogenic tumor cells was examined using a methylcellulose colony assay system (Uckun, F. M., et al., J. Exp. Med. 163: 347-368, 1986; Messinger, Y., et al., Clin Cancer Res. 4: 165-70, 1998). In brief, cells (10^5/ml in RPMI-10% FBS) were treated overnight at 37° C. with compound 6 at varying concentrations. After treatment, cells were washed twice, plated at 10^4 or 10^5 cells/ml in RPMI-10% FMS-0.9% methylcellulose in Petri dishes, and cultured for 7 days at 37° C. in a humidified 5% CO2 incubator. Subsequently, leukemic cell (or tumor cell) colonies were enumerated using an inverted phase-contrast microscope. The percent inhibition of colony formation was calculated using the following formula:
(§2) % Inhibition=1−mean number of colonies in test culture×100 mean number of colonies in control culture

RAMOS (B-ALL) = test: Methylcellulose clonogenic assay
Method: as §1, §2

HL-60 (AML) = test: Methylcellulose clonogenic assay; conditions: HL-60, 100 μM
Method: as §1, §2

M24-MET (Melanoma) = test: Methylcellulose clonogenic assay
Method: as §1, §2

DAUDI (B-ALL) = test: Methylcellulose clonogenic assay
Method: as §1, §2

NALM-6 cells = test: In situ TUNEL apoptosis assay; conditions: Homo sapiens, 10-500 μM, 48 hours, read-out: EC50, percentage of apoptotic cells (TUNEL)
Source text: Apoptosis Assays Cells were examined for apoptotic changes after treatment with compound 6 by the in situ terminal […] transferase-mediated dUTP end-labeling (TUNEL) assay using the ApopTag apoptosis detection kit (Oncor, Gaithersburg, Md.) according to the manufacturer's recommendations, as detailed in our earlier reports (Zhu, D. -M., et al., Clin. Can. Res. 4: 2967-2976, 1998; D'Cruz, O., P., G., and Uckun, F. M. Biology of Reproduction. 58: 1515-1526, 1998).
To confirm that compound 6 can induce apoptosis in leukemia cells, the TdT-mediated labeling of 3′-OH termini with digoxigenin-conjugated UTP using the in situ TUNEL assay method combined with confocal laser scanning microscopy was employed. At 48 hours after treatment with compound 6 at concentrations ranging from 10 μM to 500 μM, NALM-6 cells were examined for digoxigenin-dUTP incorporation using FITC-conjugated anti-digoxigenin (green fluorescence) and propidium iodide counterstaining (red fluorescence). […] FIG. 8B.1 and 8B.2 depict the two-color confocal microscopy images of vehicle-treated control cells and cells treated with 100 μM compound 6. […] Because of their exquisite sensitivity in detecting DNA fragments released from a small percentage of apoptotic cells, the DNA gel assays of apoptosis are uniquely suited to examine the nonspecific toxicity of new antileukemic agents.

SMILES: COc1cc2ncnc(Nc3ccc(O)cc3)c2cc1OC [WHI-P131, 4-(4′-hydroxyl-phenyl)-amino-6,7-dimethoxyquinazoline]
- inhibition at 30 µM [1]: ~90%
- Mean No. of Colonies/10^5 Cells ([2]; 30 μM): 838 (600, 1076)
- inhibition at 30 µM ([2]; Homo sapiens): 0%
- Mean No. of Colonies/10^5 Cells (RAMOS (B-ALL); 30 μM): 2 (0, 4)
- inhibition at 30 µM (RAMOS (B-ALL); Homo sapiens): 99.8%
- Mean No. of Colonies/10^5 Cells (HL-60 (AML)): 1 (1,1)
- inhibition at 100 µM (HL-60 (AML); Homo sapiens): > 99.9%
- Mean No. of Colonies/10^5 Cells (M24-MET (Melanoma); 0.3 μM): 312 (238, 386)
- Mean No. of Colonies/10^5 Cells (M24-MET (Melanoma); 1 μM): 287 (157, 418)
- Mean No. of Colonies/10^5 Cells (M24-MET (Melanoma); 3 μM): 390 (280, 500)
- Mean No. of Colonies/10^5 Cells (M24-MET (Melanoma); 10 μM): 301 (249, 353)
- Mean No. of Colonies/10^5 Cells (M24-MET (Melanoma); 30 μM): 599 (534, 664)
- inhibition at 0.3 µM (M24-MET (Melanoma); Homo sapiens, M24met, 0.3 μM): 0%
- inhibition at 1 µM (M24-MET (Melanoma); Homo sapiens, M24met, 1 μM): 0%
- inhibition at 3 µM (M24-MET (Melanoma); Homo sapiens, M24met, 3 μM): 0%
- inhibition at 10 µM (M24-MET (Melanoma); Homo sapiens, M24met, 10 μM): 0%
- inhibition at 30 µM (M24-MET (Melanoma); Homo sapiens, M24met, 30 μM): 0%
- Mean No. of Colonies/10^5 Cells (DAUDI (B-ALL); DAUDI, 0.3 μM): 2030 (1700, 2360)
- Mean No. of Colonies/10^5 Cells (DAUDI (B-ALL); DAUDI, 1 μM): 2136 (1568, 2704)
- Mean No. of Colonies/10^5 Cells (DAUDI (B-ALL); DAUDI, 3 μM): 1406 (988, 1824)
- Mean No. of Colonies/10^5 Cells (DAUDI (B-ALL); DAUDI, 10 μM): 1149 (1054, 1244)
- Mean No. of Colonies/10^5 Cells (DAUDI (B-ALL); DAUDI, 30 μM): 29 (12, 46)
- EC50 (DAUDI (B-ALL); Homo sapiens, DAUDI cells, read-out: EC50, inhibition of clonogenic growth): 18.8 µM
- inhibition at 0.3 µM (DAUDI (B-ALL); Homo sapiens, DAUDI, 0.3 μM): 48.6%
- inhibition at 1 µM (DAUDI (B-ALL); Homo sapiens, DAUDI, 1 μM): 45.9%
- inhibition at 3 µM (DAUDI (B-ALL); Homo sapiens, DAUDI, 3 μM): 64.4%
- inhibition at 10 µM (DAUDI (B-ALL); Homo sapiens, DAUDI, 10 μM): 70.9%
- inhibition at 30 µM (DAUDI (B-ALL); Homo sapiens, DAUDI, 30 μM): 98%
- EC50 (NALM-6 cells): 84.6 µM
